Converted amounts (≈) assume the structure as drawn. “Also recorded” adds a separate entry of the source. Like-named read-outs stand apart in the source and are kept apart here.
Tests used:
M. tuberculosis H37Rv = assay: Minimum bactericidal concentration at pH 4.5 (MBC4.5), luminescence readout; format: cell-based, Mycobacterium tuberculosis; conditions: for MBC: Mycobacterium tuberculosis, H37RV, 168 h; for antitubercular activity (by MBC4.5, in words): pH 4.5
HepG2 cells [1] = assay: HepG2 cytotoxicity (CellTiter-Glo, 72 h); format: cell-based; conditions: Homo sapiens, mean ± standard deviation, replicates in parentheses
HepG2 cells [2] = format: cell-based, human; conditions: pH 7.4
Experimental: Measurement of membrane potential in HepG2 human liver cells (ATCC) was adapted from the method published by Huang.[40] Cells were plated at a density of 50 000 cells per well (100 μL) in black-walled 96-well plates and incubated overnight. Culture medium was replaced with the same volume of assay buffer (80 mM NaCl, 75 mM KCl, 25 mM D-glucose, 25 mM HEPES pH 7.4) containing test compounds at indicated concentrations; CCCP and DMSO served as controls. Plates were incubated at 37 °C for 30 min, followed by incubation with 4 μM DiOC2 for 20 min at RT. Cells were washed 4 times with 150 μL assay buffer, and suspended in 100 μL of assay buffer. A Synergy H1 microplate reader (BioTek Instruments) was used to measure fluorescence (488 nm/530 nm and 488 nm/620 nm). Each test compound was evaluated in at least two replicate experiments.

[3] = system: non-replicating M. tuberculosis; assay: Non-replicating kill kinetics at pH 5.5 (CFU over 21 days); format: cell-based, Mycobacterium tuberculosis; conditions: pH 5.5, 14 days, single replicate
[4] = system: M. tuberculosis membrane potential; assay: M. tuberculosis membrane potential (DiOC2 red/green fluorescence ratio); format: cell-based, Mycobacterium tuberculosis; conditions: CCCP positive control
[5] = median, pH 4.5 phosphate citrate buffer, 7 days, 2-log reduction threshold, replicates in parentheses

| Structure (SMILES) | MBC (M. tuberculosis H37Rv; [5]) [µM] | IC50 (HepG2 cells [1]) [µM] | further results |
| --- | --- | --- | --- |
| CCNC(=O)c1ccccc1NS(=O)(=O)c1ccc(Br)cc1 [Compound 5, 2-(4-bromophenylsulfonamido)-N-ethylbenzamide] | > 200 | > 100 | – |
| O=S(=O)(Nc1ccccc1COc1ccc(Cl)cc1Cl)c1ccc(Br)cc1 [Compound 29, 4-bromo-N-(2-((2,4-dichlorophenoxy)methyl)phenyl)benzenesulfonamide] | > 200 | 24 ± 6.4 | – |
| Nc1ccccc1C(=O)Nc1ccc(Cl)cc1Cl [Compound 9, 2-amino-N-(2,4-dichlorophenyl)benzamide] | 200 (≈ 56.2 µg/mL) | 40 ± 2.3 | – |
| O=C(Nc1ccc(Cl)cc1Cl)c1ccccc1S(=O)(=O)c1ccc(Br)cc1 [Compound 27, 2-((4-bromophenyl)sulfonyl)-N-(2,4-dichlorophenyl)benzamide] | > 200 | 89 ± 18 | antitubercular activity (by MBC4.5, in words) (M. tuberculosis H37Rv): loss of antitubercular activity |
| O=C(Nc1ccc(Cl)cc1)c1ncccc1NS(=O)(=O)c1ccc(Br)cc1 [Compound 32, 3-(4-bromophenylsulfonamido)-N-(4-chlorophenyl)picolinamide] | > 200 | 5 ± 1.4 | – |
| O=S(=O)(Nc1ccccc1CNc1ccc(Cl)cc1Cl)c1ccc(Br)cc1 [Compound 28, 4-bromo-N-(2-(((2,4-dichlorophenyl)amino)methyl)phenyl)benzenesulfonamide] | > 200 | 33 | – |
| O=C(Nc1ccc(Cl)cc1Cl)c1cccc(NS(=O)(=O)c2ccc(Br)cc2)c1 [Compound 26, 3-(4-bromophenylsulfonamido)-N-(2,4-dichlorophenyl)benzamide] | > 200 | 34 ± 3.5 | antitubercular activity (by MBC4.5, in words) (M. tuberculosis H37Rv): loss of antitubercular activity |
| Cc1nnc(Sc2ccc3nsnc3c2[N+](=O)[O-])s1 [Compound 37] | 19 (≈ 5.92 µg/mL) | 5.6 ± 3.2 | disruption of HepG2 cell membrane potential (HepG2 cells [2]): drop in membrane potential |
| O=C(Nc1ccc(Cl)cc1)[C@@H]1CCCC[C@H]1NS(=O)(=O)c1ccc(Br)cc1 (relative stereo) [Compound 31, trans-2-(4-bromophenylsulfonamido)-N-(4-chlorophenyl)cyclohexanecarboxamide] | > 200 | 67 ± 12 | – |
| Nc1ccc2[nH]c(C3CCCCC3)nc2c1 [Compound 36] | 100 (≈ 21.5 µg/mL) | > 100 | – |
| CS(=O)(=O)Nc1ccccc1C(=O)Nc1ccc(Cl)cc1Cl [Compound 8, N-(2,4-dichlorophenyl)-2-(methylsulfonamido)benzamide] | 75 (≈ 26.9 µg/mL) | 78 ± 29 | log kill at 14 days [3]: > 4 log |
| O=C(c1ccccc1NS(=O)(=O)c1ccc(Br)cc1)N1CCCCC1 [Compound 21, 4-bromo-N-(2-(piperidine-1-carbonyl)phenyl)benzenesulfonamide] | > 200 | > 100 | – |
| CN1CCN(C(=O)c2ccccc2NS(=O)(=O)c2ccc(Br)cc2)CC1 [Compound 23, 4-bromo-N-(2-(4-methylpiperizine-1-carbonyl)phenyl)benzenesulfonamide] | > 200 | > 100 | – |
| FC(F)(F)c1nc2ccc3nsnc3c2[nH]1 [Compound 34] | 75 (≈ 18.3 µg/mL) | 70 ± 11 | – |
| CN(C(=O)c1ccccc1NS(=O)(=O)c1ccc(Br)cc1)c1ccc(Cl)cc1Cl [Compound 25, 2-(4-bromophenylsulfonamido)-N-(2,4-dichlorophenyl)-N-methylbenzamide] | > 200 | 60 ± 9.9 | disruption of M. tuberculosis membrane potential at pH 5.6 [4]: maintained its disruption of M. tuberculosis membrane potential at pH 5.6; disruption of M. tuberculosis membrane potential at pH 6.8 [4]: showed some capacity to depolarize the membrane, but the effect was at much higher concentrations; antitubercular activity (by MBC4.5, in words) (M. tuberculosis H37Rv): loss of antitubercular activity; disruption of HepG2 cell membrane potential (HepG2 cells [2]; human, 30 min): decrease in membrane potential in HepG2 cells comparable in magnitude to CCCP at concentrations significantly below the IC50 |
| CCNc1ccccc1C(=O)Nc1ccc(Cl)cc1Cl [Compound 10, N-(2,4-dichlorophenyl)-2-(ethylamino)benzamide] | > 200 | > 100 | disruption of M. tuberculosis membrane potential at pH 5.6 [4]: caused membrane hyperpolarization; disruption of HepG2 cell membrane potential (HepG2 cells [2]; human, 30 min): did not disrupt membrane potential at concentrations up to 200 μM |
| C#CCNC(=O)c1ccccc1NS(=O)(=O)c1ccc(Br)cc1 [Compound 18, 2-(4-bromophenylsulfonamido)-N-(pro-2-yn-1-yl)benzamide] | > 200 | 83 ± 12 | – |

| Structure (SMILES) | MBC (M. tuberculosis H37Rv; [5]) [µM] | IC50 (HepG2 cells [1]) [µM] | further results |
| --- | --- | --- | --- |
| O=C(Nc1ccc(Cl)cc1Cl)c1ccccc1NCc1ccc(Br)cc1 [Compound 12, 2-((4-bromobenzyl)amino)-N-(2,4-dichlorophenyl)benzamide] | > 200 | > 100 | – |
| O=C(NC1CCCCCC1)c1ccccc1NS(=O)(=O)c1ccc(Br)cc1 [Compound 19, 2-(4-bromophenylsulfonamido)-N-cycloheptylbenzamide] | > 200 | 24 ± 6.4 | – |
| CCCCNC(=O)c1ccccc1NS(=O)(=O)c1ccc(Br)cc1 [Compound 16, 2-(4-bromophenylsulfonamido)-N-butylbenzamide] | 100 (≈ 41.1 µg/mL) | 59 ± 0.71 | disruption of M. tuberculosis membrane potential at pH 5.6 [4]: disruption at significantly lower concentrations relative to pH 6.8; also recorded: comparable disruption to CCCP at concentrations one or more orders of magnitude below their MBC4.5; also recorded: larger, more consistent degree of separation from DMSO than CCCP; antitubercular activity (by MBC4.5, in words) (M. tuberculosis H37Rv): showed measurable anti-tubercular activity; disruption of HepG2 cell membrane potential (HepG2 cells [2]; human, 30 min): decrease in membrane potential in HepG2 cells comparable in magnitude to CCCP at concentrations significantly below the IC50 |
| NC(=O)c1ccccc1NS(=O)(=O)c1ccc(Br)cc1 [Compound 6, 2-(4-bromophenylsulfonamido)benzamide] | > 200 | > 100 | disruption of M. tuberculosis membrane potential at pH 5.6 [4]: did not disrupt M. tuberculosis membrane potential; disruption of HepG2 cell membrane potential (HepG2 cells [2]; human, 30 min): did not disrupt membrane potential at concentrations up to 200 μM |
| O=C(Nc1ccccc1)c1ccccc1NS(=O)(=O)c1ccc(Br)cc1 [Compound 4, 2-(4-bromophenylsulfonamido)-N-phenylbenzamide] | 100 (≈ 43.1 µg/mL) | 30 ± 3.5 | disruption of M. tuberculosis membrane potential at pH 5.6 [4]: comparable disruption to CCCP at concentrations one or more orders of magnitude below their MBC4.5; disruption of HepG2 cell membrane potential (HepG2 cells [2]; human, 30 min): decrease in membrane potential in HepG2 cells comparable in magnitude to CCCP at concentrations significantly below the IC50 |
| CCn1cnc2c3nsnc3ccc21 [Compound 35] | 75 (≈ 15.3 µg/mL) | > 100 | – |
| O=C(Nc1ccc(Cl)cc1)c1cccnc1NS(=O)(=O)c1ccc(Br)cc1 [Compound 33, 2-(4-bromophenylsulfonamido)-N-(4-chlorophenyl)nicotinamide] | > 200 | 20 ± 5.7 | – |
| CC(=O)Nc1ccccc1C(=O)Nc1ccc(Cl)cc1Cl [Compound 13, 2-acetamido-N-(2,4-dichlorophenyl)benzamide] | > 200 | > 100 | – |
| O=C(Nc1ccc(Cl)cc1)[C@@H]1CCCC[C@@H]1NS(=O)(=O)c1ccc(Br)cc1 (relative stereo) [Compound 30, cis-2-(4-bromophenylsulfonamido)-N-(4-chlorophenyl)cyclohexanecarboxamide] | > 200 | 76 ± 12 | – |
| O=C(NC1C2CC3CC(C2)CC1C3)c1ccccc1NS(=O)(=O)c1ccc(Br)cc1 (stereo not drawn) [Compound 20, N-(adamantan-2-yl)-2-(4-bromophenylsulfonamido)benzamide] | > 200 | 20 ± 4.2 | – |
| O=C(NC1CC1)c1ccccc1NS(=O)(=O)c1ccc(Br)cc1 [Compound 17, 2-(4-bromophenylsulfonamido)-N-cyclopropylbenzamide] | > 200 | > 100 | – |
| O=C(Nc1ccccc1C(=O)Nc1ccc(Cl)cc1Cl)c1ccc(Br)cc1 [Compound 14, 2-(4-bromobenzamido)-N-(2,4-dichlorophenyl)benzamide] | > 200 | > 100 | – |
| O=C(c1ccccc1NS(=O)(=O)c1ccc(Br)cc1)N1CCOCC1 [Compound 22, 4-bromo-N-(2-(morpholine-4-carbonyl)phenyl)benzenesulfonamide] | > 200 | > 100 | – |
| O=[N+]([O-])c1c(Sc2ccccn2)ccc2nsnc12 [Compound 38] | 25 (≈ 7.26 µg/mL) | 4.8 ± 0.86 | disruption of HepG2 cell membrane potential (HepG2 cells [2]): drop in membrane potential |
| O=C(Nc1ccc(Cl)cc1Cl)c1ccccc1NS(=O)(=O)c1ccc(Br)cc1 [Compound 1] | 6.3 (≈ 3.15 µg/mL) | 6.2 ± 1.1 | disruption of M. tuberculosis membrane potential at pH 5.6 [4]: comparable disruption to CCCP at concentrations one or more orders of magnitude below their MBC4.5; disruption of M. tuberculosis membrane potential at pH 6.8 [4]: depolarized the membrane nearly as strongly as known uncoupler carbonyl cyanide m-chlorophenyl hydrazone (CCCP); MBC4.5 (M. tuberculosis H37Rv; [5]): 6.3 (5) μM |
| O=C(Nc1ccc(Cl)cc1Cl)c1ccccc1NS(=O)(=O)c1ccccc1 [Compound 7, N-(2,4-dichlorophenyl)-2-(phenylsulfonamido)benzamide] | > 200 | 19 ± 9.2 | – |
